The values below come from patent US20150064710A1, “METHOD FOR INHIBITING CELL GROWTH, NUCLEIC ACID MOLECULE HAVING RNA INTERFERENCE EFFECT ON NEK10 VARIANT GENE, AND ANTICANCER AGENT” (Nippon Kayaku Kabushiki Kaisha, priority 2011, published 2015).

The test system of one data set is NEK10 variant mRNA. The data set is described as follows: Expression inhibitory effect on NEK10 variant mRNA (real-time PCR using SYBR Green after siRNA transfection). It counts as cell-based, human. To be noted: breast cancer cell line MDA-MB-231; siRNA (20 nM) with Lipofectamine RNAiMAX; 72 hours culture after transfection; first control siRNA treatment group = 100. From the text:
After carrying out siRNA treatment by transfecting cells with siRNA consisting of the combination of sense RNA consisting of the base sequence represented by SEQ ID NO: 2 and antisense RNA consisting of the base sequence represented by SEQ ID NO: 3 (to be referred to as NEK10 siRNA #1) and siRNA consisting of the combination of sense RNA consisting of the base sequence represented by SEQ ID NO: 4 and antisense RNA consisting of the base sequence represented by SEQ ID NO: 5 (to be referred to as NEK10 siRNA #2), NEK10 variant mRNA was measured by real-time PCR using SYBR™ Green to study the knockdown effects on NEK10 variant mRNA.
Breast cancer cell line MDA-MB-231, which was confirmed to express NEK10 variant mRNA in Example 1, was transfected with control siRNA, NEK10 siRNA #1 or NEK10 siRNA #2, and NEK10 variant mRNA following siRNA treatment was measured by real-time PCR using SYBR™ Green to study the knockdown effects on NEK10 variant mRNA of each siRNA. The control siRNA was purchased from Invitrogen, and siRNA synthesized by Invitrogen was used for NEK10 siRNA #1 and NEK10 siRNA #2. […]
Using 500 ng of the purified RNA, cDNA was prepared in the same manner as Reference Example 1 using the reverse transcriptase Superscript III (Invitrogen). Ct values were measured in the same manner as Reference Example 1 using 1 μL of the resulting cDNA as template. […]

The subject of a further data set is MDA-MB-231 cells. The data set is described as follows: Growth inhibitory effect of NEK10 siRNA on cancer cells (methylene blue assay). Type of data set: cell-based. To be noted: MDA-MB-231 breast cancer cells; 72 hours after siRNA transfection; absorbance at 660 nm; control siRNA treatment group of first experiment = 100. Here is the method:
NEK10 siRNA #1 and NEK10 siRNA #2 were confirmed to have growth inhibitory effects on cancer cells. Namely, a study was conducted by methylene blue assay to determine whether cell growth is inhibited by knocking down NEK10 variant gene by transfecting the cells with NEK10 siRNA #1 and NEK10 siRNA #2.
MDA-MB-231 cells were transfected with each siRNA in the same manner as previously described (Confirmation of Expression Inhibitory Effect on NEK10 Variant mRNA) followed by culturing for 72 hours after transfection. After culturing, the medium was removed followed by the addition of 1000 μL of methanol and allowing to stand for 2 minutes at room temperature to fix the cells. After removing the methanol, 1000 μL of dye solution (0.05% methylene blue solution) were added followed by dyeing for 30 minutes. After washing three times with 4 mL of distilled water, 2 mL of a 3% HCl solution were added followed by measurement of the absorbance of methylene blue at 660 nm using a microplate reader (BioRad).
The experiment was conducted in triplicate and the same experiment was repeated three times. The average triplicate value of the control siRNA treatment group of the first experiment was used as a control, the cell growth rates (%) were calculated according to the following Equation (5) using the average triplicate values of the siRNA treatment group of each experiment. […]

Regarding “NEK10 siRNA #1: siRNA of sense RNA SEQ ID NO: 2 (5'-GAAAUCCUGUCAGAUGAUAACUUCA-3') and antisense RNA SEQ ID NO: 3 (antisense UGAAGUUAUCAUCUGACAGGAUUUC; RNA, backbone not given here)”, the “percentage of NEK10 mRNA versus the control” value in the data set on NEK10 variant mRNA came to 11±0.5%. In the data set with MDA-MB-231 cells, this substance came in with a cell growth rate of 34±14%.
For “NEK10 siRNA #2: siRNA of sense RNA SEQ ID NO: 4 (5'-UCUGCCUUGUUUGUUCACCACUAUU-3') and antisense RNA SEQ ID NO: 5 (antisense AAUAGUGGUGAACAAACAAGGCAGA; RNA, backbone not given here)” the same measures were 86±7.4% and 58±17%.
